One data set has as its target T1, mouse renin (Mus musculus, UniProt P06281).
T1 construct: from tissue; host or cells: plasma (terminal blood, cardiocentesis) of female DCM (mCREB transgenic) mice on a C57BL/6 background
T1 sequence (P06281 72-402): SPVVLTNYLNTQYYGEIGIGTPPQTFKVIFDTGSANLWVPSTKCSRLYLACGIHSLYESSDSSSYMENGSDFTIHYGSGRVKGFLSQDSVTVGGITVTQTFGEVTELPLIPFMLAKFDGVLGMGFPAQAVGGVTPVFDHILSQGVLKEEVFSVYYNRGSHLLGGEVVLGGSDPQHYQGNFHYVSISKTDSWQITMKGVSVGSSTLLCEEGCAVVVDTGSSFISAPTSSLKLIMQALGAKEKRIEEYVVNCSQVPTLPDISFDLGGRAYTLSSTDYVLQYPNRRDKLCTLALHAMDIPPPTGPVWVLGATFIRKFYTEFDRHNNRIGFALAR
The data set is described as follows: Plasma renin activity assay (FRET substrate) in plasma of treated DCM mice. Format: in vivo. The conditions noted are these: female DCM mice, 100 mg/kg/day orally in drinking water from 50 days of age, measured at 90 days, vs DCM control. As for the experimental part: Plasma samples were aliquoted and stored at −80° C. until analysis.

Data set [1] concerns female mice with dilated cardiomyopathy (DCM). The data set is described as follows: Plasma Ang II, aldosterone and HF biomarkers by enzyme immunoassay in DCM mice at 90 days. Format: in vivo, mouse. The note with it: for plasma aldosterone levels: 100 mg/kg/day oral, 100 mg/kg/day. The text has this: Mice: In the Examples 1-3 below, the mice used were all female littermates with or without dilated cardiomyopathy (DCM) on a C57BL/6 background. DCM is a major cause of HF, which is associated with pathological dilation of the heart ventricles and declines in heart contractile or systolic function. DCM mice express transgene dominant negative CREB transcription factor, specific to cardiomyocytes and develop a consistent progressive DCM and HF similar to humans. In female mice with DCM renal function remains within normal range up to the terminal HF stage, as measured by plasma BUN and creatinine. DCM mice (mCREBTg) are slightly hypotensive at 91 days of age compared to mCREB WT. mCREB mice were randomly assigned to experimental groups. Groups were denoted as WT (n=20), DCM (Control, n=28), and DCM+direct renin inhibitor treatment (+DRI, n=29). At 90-day censorship, dissected organs were weighed, and terminal blood was collected via cardiocentesis with EDTA-aprotinin syringes to prevent proteolysis of targeted proteins. The blood samples were centrifuged at 3000 rpm for 20 min at 4° C. Plasma samples were aliquoted and stored at −80° C. until analysis.
(§1) Dose calculations were based on an average consumption of 5 mL of water/day/mouse. […] The oral dose was chosen to closely mimic the human route of delivery, while not altering the blood pressure, associated with elevated plasma Ang II-aldosterone levels, given the low bioavailability of the drug in rodents. […] No issues with palatability or clinical dehydration were noted throughout the study as assessed by blinded husbandry and veterinary staff. […] The administration was started at 50 days of age to coincide with the previously identified timeline of increased renin activity and development of stage B HF in female DCM mice]. Aliskiren water was provided ad libitum throughout life. All untreated mice (WT and DCM+vehicle) received ad lib 3 ppm hyperchlorinated facility water via an automated watering system (Edstrom, Waterford, Wis., USA).
Enzyme Immunoassay: Plasma Ang II, aldosterone, atrial natriuretic peptide (N terminus-ANP), cyclic guanosine monophosphate (cGMP), neprilysin, and corin levels were measured by enzyme immunoassays according to the manufacturers' protocols (Phoenix Pharm. Inc., Burlingame, Calif., USA; Abcam Inc., Cambridge, Mass., USA; Enzo Life Sciences Inc., Farmingdale, N.Y., USA; Boster Biological Technology, Pleasanton, Calif., USA; USCN Life Science Inc., Houston, Tex., USA).

The test system is the same in data set [2]. The data set is described as follows: Kaplan-Meier survival of female DCM mice. It is filed as in vivo, mouse. The source says: Mice: In the Examples 1-3 below, the mice used were all female littermates with or without dilated cardiomyopathy (DCM) on a C57BL/6 background. DCM is a major cause of HF, which is associated with pathological dilation of the heart ventricles and declines in heart contractile or systolic function. DCM mice express transgene dominant negative CREB transcription factor, specific to cardiomyocytes and develop a consistent progressive DCM and HF similar to humans. In female mice with DCM renal function remains within normal range up to the terminal HF stage, as measured by plasma BUN and creatinine. DCM mice (mCREBTg) are slightly hypotensive at 91 days of age compared to mCREB WT. mCREB mice were randomly assigned to experimental groups. […]
Dose calculations were based on an average consumption of 5 mL of water/day/mouse. […] No issues with palatability or clinical dehydration were noted throughout the study as assessed by blinded husbandry and veterinary staff. […]
Statistical Analysis: Statistical analyses were performed with GraphPad Prism 7.04 software (GraphPad Software, La Jolla, Calif., USA) using Student's t-test, one-way ANOVA, or two-way ANOVA with Tukey's multiple comparisons test (unless otherwise indicated) and Pearson's correlation. Survival was analyzed using Kaplan-Meier curves with the Mantel-Cox test. […]

For data set [3] the test system is unchanged. The data set is described as follows: Echocardiography of DCM mice at 90 days of age. It is filed as in vivo, mouse.
The test system of a further data set is mice. The conditions noted are these: mouse, in vivo. As for the experimental part: as §1
For data set [4] the following is noted: orally in rats; cited from earlier work.
The conditions of data set [5]: in humans; cited from earlier work.
The next data set relates to blood pressure. The conditions noted are these: 15-50 mg/kg/day via subcutaneous osmotic pumps, previous studies; cited from earlier work.

Like-named read-outs stand apart in the source and are kept apart here.

For orientation: bioavailability means dose-corrected exposure relative to a reference, in per cent. As for `COCCCOc1cc(C[C@@H](C[C@H](N)[C@@H](O)C[C@H](C(=O)NCC(C)(C)C(N)=O)C(C)C)C(C)C)ccc1OC` [aliskiren, aliskiren hemifumarate], the “plasma renin activity (PRA)” value on mouse renin was “significantly reduced elevated PRA to normal levels”; on mouse renin (listed as DRI-aliskiren) it was “normalized pathological renin activity”. Also, the “plasma Ang II levels” value in data set [1] (female DCM mice, 100 mg/kg, DCM+DRI vs DCM+vehicle) was “no significant difference”. For the same molecule, the plasma aldosterone levels result in data set [1] (female DCM mice, vs DCM control) was “not modulated by treatment”; in data set [1] (female DCM mice, vs DCM control, listed as DRI-aliskiren), “no significant difference”. For the same molecule, the ANP plasma levels entry in data set [1] (vs DCM control) is “not affected”. The corin plasma levels result in data set [1] (vs DCM control) is given as “not affected”. Further, the “plasma cGMP levels” value in data set [1] (vs DCM control) is reported as “non-significant trend toward lower levels”. The plasma neprilysin levels result is recorded as “normalized plasma neprilysin levels” in data set [1] (vs DCM control, P<0.001, listed as DRI) and “lowered neprilysin to WT levels” in data set [1] (vs DCM control, P<0.001, listed as DRI-aliskiren). Moreover, the median survival in data set [2] (100 mg/kg/day oral, control 103 days, P<0.05) turned out to be 110 days. In addition, in data set [2] (median survival vs control), the “outlived the control mice (survival gain)” value is recorded as 7%. Besides, the heart rate in data set [3] (anesthetized, control 419±10 bpm, P<0.01) was determined as 469±14 bpm. In data set [3] (vs control DCM mice, P<0.01), the “cardiac output (CO mL/min)” value is “improved”. Further, the “systolic function, ejection fraction (EF %)” value in data set [3] (vs control DCM mice, P<0.05) is “improved”. In data set [3] (vs control DCM mice, P<0.05), the “systolic function, fractional shortening (FS %)” value is “improved”. For the same molecule, the “palatability or clinical dehydration” value with mice was “No issues”. For the same molecule, in the data set on mice (100 mg/kg/day), the “side effects / abnormal clinical observations” value was “no side effects or abnormal clinical observations”. The bioavailability in data set [4] was 2.6%; in data set [5], “low”. Also, the blood pressure entry with blood pressure is on record as “no alteration in blood pressure”.
